# Values joined by “and” are separate entries in the source; they are usually repeats but may differ in a detail not shown here. Identical values can stand only once. Like-named read-outs stand apart in the source and are kept apart here.
# Experiments:
# [1] = Pharmacokinetic study A: topical Methadone-DEET solution, human plasma; settings: 10% solution in DEET, one-day application to the skin
# [2] = Study 1: concentrations of methadone in rat plasma, topical administration versus intravenous injection; assay type: in vivo
# Protocol: The test article was administered intravenously (IV) through the tail vein to animals in Group A. The injection was performed slowly. A gauze pad (1×1 cm) Saturated with 0.2 mL of the appropriate test article was applied to the clipped site on the back of the animals in Groups 2 and 3. The gauze pad was secured by occlusive tape. The animal was wrapped in gauze, which was held in place with Zonas porous tape.
# Blood Collection: Blood (0.5 mL) was collected into sodium heparin tubes at the appropriate time points. The samples were centrifuged at approximately 2800 rpm at 2-8 degrees Celsius for approximately 15 minutes. Plasma was collected.
# [3] = Pharmacokinetic study B: methadone patch, human plasma; assay type: in vivo; settings: topical, Study B: 5 × 5 cm SIS patch (Methadone 10 weight %), 25 mg Methadone free base, applied 12 hours, left leg inner side above knee, 55 kg person, read-out: Concentrations of Methadone in Human Plasma Samples
# [4] = Solubility of methadone in different solvents; assay type: physicochemical
# Protocol: In this experiment, the solubility of methadone in a number of different solvents was evaluated. The solvents evaluated were mineral oil, N-methyl-2-pyrrolidone, diisopropyl adipate, DEET, PEG, Di (propylene glycol), dehydrated alcohol and water. […] The stability of the solutions was also evaluated.
# [5] = organic solvent or mixture, thermodynamic from solid, diisopropyl adipate
# [6] = organic solvent or mixture, DEET (97%)
# [7] = organic solvent or mixture, Dehydrated Alcohol
# [8] = organic solvent or mixture, Di(propylene glycol)
compound,measurement,setting,value
"CCC(=O)C(CC(C)N(C)C)(c1ccccc1)c1ccccc1 (centres unmarked) [Methadone, 6-dimethylamino-4,4-diphenyl-3-hepatone]",Irritation of human skin by topical methadone composition,[1],lack of irritation
same,Irritation of rat skin by topical application,"[2]; Study 1, topical methadone solutions on rat skin over the application time",non-irritating
same,Concentrations of Methadone in Rat Plasma Samples,"[2]; Study 1 Group A: I.V. tail vein, 0.25 mL Test Article 1 (0.5 mg/mL Methadone-Saline Solution), 2 min, individual rats A1-A3",67.8 ng/mL and 69.5 ng/mL
same,Concentrations of Methadone in Rat Plasma Samples,"[2]; Study 1 Group A: I.V. tail vein, 0.25 mL Test Article 1 (0.5 mg/mL Methadone-Saline Solution), 5 min, individual rats A1-A3",68.9 ng/mL and 56.0 ng/mL
same,Concentrations of Methadone in Rat Plasma Samples,"[2]; Study 1 Group A: I.V. tail vein, 0.25 mL Test Article 1 (0.5 mg/mL Methadone-Saline Solution), 10 min, individual rats A1-A3",57.6 ng/mL and 42.3 ng/mL
same,Concentrations of Methadone in Rat Plasma Samples,"[2]; Study 1 Group A: I.V. tail vein, 0.25 mL Test Article 1 (0.5 mg/mL Methadone-Saline Solution), 30 min, individual rats A1-A3",30.9 ng/mL and 35.8 ng/mL
same,Concentrations of Methadone in Rat Plasma Samples,"[2]; Study 1 Group A: I.V. tail vein, 0.25 mL Test Article 1 (0.5 mg/mL Methadone-Saline Solution), 60 min, individual rats A1-A3",24.5 ng/mL and 22.7 ng/mL
same,Concentrations of Methadone in Rat Plasma Samples,"[2]; Study 1 Group B: topical dorsal flank, 1 × 1 cm gauze pad with 0.2 mL Test Article 2 (Methadone-Diisopropyl Adipate Solution 23.9%), 10 min, individual rats B1-B3",BQL (below quantification limit (1.00 ng/mL))
same,Concentrations of Methadone in Rat Plasma Samples,"[2]; Study 1 Group B: topical dorsal flank, 1 × 1 cm gauze pad with 0.2 mL Test Article 2 (Methadone-Diisopropyl Adipate Solution 23.9%), 20 min, individual rats B1-B3",3.25 ng/mL and 3.18 ng/mL
same,Concentrations of Methadone in Rat Plasma Samples,"[2]; Study 1 Group B: topical dorsal flank, 1 × 1 cm gauze pad with 0.2 mL Test Article 2 (Methadone-Diisopropyl Adipate Solution 23.9%), 45 min, individual rats B1-B3",10.4 ng/mL and 7.24 ng/mL
same,Concentrations of Methadone in Rat Plasma Samples,"[2]; Study 1 Group B: topical dorsal flank, 1 × 1 cm gauze pad with 0.2 mL Test Article 2 (Methadone-Diisopropyl Adipate Solution 23.9%), 60 min, individual rats B1-B3",15.1 ng/mL and 12.4 ng/mL
same,Concentrations of Methadone in Rat Plasma Samples,"[2]; Study 1 Group B: topical dorsal flank, 1 × 1 cm gauze pad with 0.2 mL Test Article 2 (Methadone-Diisopropyl Adipate Solution 23.9%), 120 min, individual rats B1-B3",44.1 ng/mL and 57.8 ng/mL and 26.2 ng/mL
same,Concentrations of Methadone in Rat Plasma Samples,"[2]; Study 1 Group C: topical dorsal flank, 1 × 1 cm gauze pad with 0.2 mL Test Article 3 (Methadone-DEET Solution 10%), 10 min, individual rats C1-C3",BQL (below quantification limit (1.00 ng/mL))
same,Concentrations of Methadone in Rat Plasma Samples,"[2]; Study 1 Group C: topical dorsal flank, 1 × 1 cm gauze pad with 0.2 mL Test Article 3 (Methadone-DEET Solution 10%), 20 min, individual rats C1-C3",BQL (below quantification limit (1.00 ng/mL))
same,Concentrations of Methadone in Rat Plasma Samples,"[2]; Study 1 Group C: topical dorsal flank, 1 × 1 cm gauze pad with 0.2 mL Test Article 3 (Methadone-DEET Solution 10%), 45 min, individual rats C1-C3",2.66 ng/mL and 2.84 ng/mL
same,Concentrations of Methadone in Rat Plasma Samples,"[2]; Study 1 Group C: topical dorsal flank, 1 × 1 cm gauze pad with 0.2 mL Test Article 3 (Methadone-DEET Solution 10%), 60 min, individual rats C1-C3",3.27 ng/mL and 4.16 ng/mL
same,Concentrations of Methadone in Rat Plasma Samples,"[2]; Study 1 Group C: topical dorsal flank, 1 × 1 cm gauze pad with 0.2 mL Test Article 3 (Methadone-DEET Solution 10%), 120 min, individual rats C1-C3",6.22 ng/mL and 5.97 ng/mL
same,concentration at 45 min,"[2]; rat, in vivo, 0.2 mL of 10% methadone solution, Study 1 Group C: topical dorsal flank, 1 × 1 cm gauze pad with 0.2 mL Test Article 3 (Methadone-DEET Solution 10%), 45 min, individual rats C1-C3, read-out: Concentrations of Methadone in Rat Plasma Samples",3.83 ng/mL
same,concentration at 60 min,"[2]; rat, in vivo, 0.2 mL of 10% methadone solution, Study 1 Group C: topical dorsal flank, 1 × 1 cm gauze pad with 0.2 mL Test Article 3 (Methadone-DEET Solution 10%), 60 min, individual rats C1-C3, read-out: Concentrations of Methadone in Rat Plasma Samples",3.88 ng/mL
same,concentration at 120 min,"[2]; rat, in vivo, 0.2 mL of 10% methadone solution, Study 1 Group C: topical dorsal flank, 1 × 1 cm gauze pad with 0.2 mL Test Article 3 (Methadone-DEET Solution 10%), 120 min, individual rats C1-C3, read-out: Concentrations of Methadone in Rat Plasma Samples",6.85 ng/mL
same,concentration at 10 min,"[2]; rat, in vivo, 0.2 mL of 23.9% methadone solution, Study 1 Group B: topical dorsal flank, 1 × 1 cm gauze pad with 0.2 mL Test Article 2 (Methadone-Diisopropyl Adipate Solution 23.9%), 10 min, individual rats B1-B3, read-out: Concentrations of Methadone in Rat Plasma Samples",3.02 ng/mL
same,concentration at 20 min,"[2]; rat, in vivo, 0.2 mL of 23.9% methadone-diisopropyl adipate solution, Study 1 Group B: topical dorsal flank, 1 × 1 cm gauze pad with 0.2 mL Test Article 2 (Methadone-Diisopropyl Adipate Solution 23.9%), 20 min, individual rats B1-B3, read-out: Concentrations of Methadone in Rat Plasma Samples",4.14 ng/mL
same,concentration at 45 min,"[2]; rat, in vivo, 0.2 mL of 23.9% methadone-diisopropyl adipate solution, Study 1 Group B: topical dorsal flank, 1 × 1 cm gauze pad with 0.2 mL Test Article 2 (Methadone-Diisopropyl Adipate Solution 23.9%), 45 min, individual rats B1-B3, read-out: Concentrations of Methadone in Rat Plasma Samples",11.5 ng/mL
same,concentration at 60 min,"[2]; rat, in vivo, 0.2 mL of 23.9% methadone-diisopropyl adipate solution, Study 1 Group B: topical dorsal flank, 1 × 1 cm gauze pad with 0.2 mL Test Article 2 (Methadone-Diisopropyl Adipate Solution 23.9%), 60 min, individual rats B1-B3, read-out: Concentrations of Methadone in Rat Plasma Samples",11.3 ng/mL
same,concentration at 2 min,"[2]; rat, in vivo, iv, 0.125 mg/animal, Study 1 Group A: I.V. tail vein, 0.25 mL Test Article 1 (0.5 mg/mL Methadone-Saline Solution), 2 min, individual rats A1-A3, read-out: Concentrations of Methadone in Rat Plasma Samples",73.5 ng/mL
same,concentration at 5 min,"[2]; rat, in vivo, iv, 0.125 mg/animal, Study 1 Group A: I.V. tail vein, 0.25 mL Test Article 1 (0.5 mg/mL Methadone-Saline Solution), 5 min, individual rats A1-A3, read-out: Concentrations of Methadone in Rat Plasma Samples",68.7 ng/mL
same,concentration at 10 min,"[2]; rat, in vivo, iv, 0.125 mg/animal, Study 1 Group A: I.V. tail vein, 0.25 mL Test Article 1 (0.5 mg/mL Methadone-Saline Solution), 10 min, individual rats A1-A3, read-out: Concentrations of Methadone in Rat Plasma Samples",61.8 ng/mL
same,concentration at 30 min,"[2]; rat, in vivo, iv, 0.125 mg/animal, Study 1 Group A: I.V. tail vein, 0.25 mL Test Article 1 (0.5 mg/mL Methadone-Saline Solution), 30 min, individual rats A1-A3, read-out: Concentrations of Methadone in Rat Plasma Samples",35.3 ng/mL
same,concentration at 60 min,"[2]; rat, in vivo, iv, 0.125 mg/animal, Study 1 Group A: I.V. tail vein, 0.25 mL Test Article 1 (0.5 mg/mL Methadone-Saline Solution), 60 min, individual rats A1-A3, read-out: Concentrations of Methadone in Rat Plasma Samples",22.8 ng/mL
same,concentration at 12 h,[3]; 12 hr,5.36 ng/mL
same,concentration at 18 h,[3]; 18 hr,4.95 ng/mL
same,concentration at 139.5 h,[3]; 139.5 hr,2.24 ng/mL
same,solubility at 3 h,"[4]; oil or lipid, Mineral oil",39.9 mg/mL
same,solubility at 6 h,"[4]; oil or lipid, Mineral oil",37.2 mg/mL
same,solubility at 24 h,"[4]; oil or lipid, Mineral oil",40.4 mg/mL
same,solubility at 48 h,"[4]; oil or lipid, Mineral oil",40.4 mg/mL
same,solubility at 3 h,[4]; [5],343 mg/mL
same,solubility at 6 h,[4]; [5],345 mg/mL
same,solubility at 48 h,[4]; [5],324 mg/mL
same,solubility at 3 h,[4]; [6],124 mg/mL
same,solubility at 6 h,[4]; [6],125 mg/mL
same,solubility at 24 h,[4]; [6],137 mg/mL
same,solubility at 48 h,[4]; [6],132 mg/mL
same,solubility at 3 h,[4]; [7],114 mg/mL
same,solubility at 6 h,[4]; [7],113 mg/mL
same,solubility at 24 h,[4]; [7],115 mg/mL
same,solubility at 48 h,[4]; [7],118 mg/mL
same,solubility at 3 h,[4]; [8],56.2 mg/mL
same,solubility at 6 h,[4]; [8],56.5 mg/mL
same,solubility at 24 h,[4]; [8],54.9 mg/mL
